In patent US8748461B2, “Metalloenzyme inhibitor compounds” (Viamet Pharmaceuticals, Inc., priority 2011, dated 2014):
Values after ≈ are worked out from the molar mass of the structure shown.

Tests used:
C. albicans = assay: Minimum Inhibitory Concentration (MIC) (C. albicans), CLSI M27-A2; type: cell-based; details: Candida albicans; about 50% growth reduction; approximately 48 h at 35±1° C.
Description: A. Minimum Inhibitory Concentration (MIC) (C. albicans) Compounds of the present disclosure were assessed for their ability to inhibit the growth of common strains of fungus, C. albicans using a standardized procedure (CLSI M27-A2). Stock solutions of the test compounds and standards were prepared in DMSO at 1,600 μg/mL (C. albicans). Eleven, serial, one-half dilutions of compounds were prepared in 96-well plates in RPMI+MOPS. The assay concentration ranges were 8-0.001 μg/mL (C. albicans). Cell suspensions of C. albicans were prepared and added to each well at concentrations of approximately 3.7×10^3 colony-forming-units per milliliter (cfu/mL). All testing was in duplicate. The inoculated plates were incubated for approximately 48 h at 35±1° C. At the completion of incubation the wells of each plate were evaluated visually for the presence of fungal growth. […] For QC purposes C. krusei isolate ATCC 6258 (4.0×10^3 cfu/mL) was included in the VOR assay.

[1] = tested on: Puccinia recondita tritici = Puccinia triticina; assay: Fungicidal activity vs. leaf rust on wheat plants; type: in vivo; details: 50 ppm spray on wheat (Yuma), inoculated the following day, evaluated 7-9 days later; read-out: Puccinia Rating (% Disease Control @ 50 ppm)
Procedure, shortened: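 Wheat seedlings were sprayed to wetness with compound at 50 ppm in 10% acetone/Triton X100 water, at about 1500 L/ha. They were inoculated with P. recondita tritici spores the following day and held overnight at high humidity before greenhouse growth. Disease severity was rated 7-9 days later on a rating scale.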

CYP3A4 = molecular target: T1, CYP3A4 (Homo sapiens, UniProt P08684); assay: Inhibition of liver cytochrome P450 enzymes, isozyme 3A4; type: in vitro ADME; details: pooled human liver microsomes
T1 construct: from tissue; host or cells: pooled human liver microsomes
T1 sequence (P08684 whole entry): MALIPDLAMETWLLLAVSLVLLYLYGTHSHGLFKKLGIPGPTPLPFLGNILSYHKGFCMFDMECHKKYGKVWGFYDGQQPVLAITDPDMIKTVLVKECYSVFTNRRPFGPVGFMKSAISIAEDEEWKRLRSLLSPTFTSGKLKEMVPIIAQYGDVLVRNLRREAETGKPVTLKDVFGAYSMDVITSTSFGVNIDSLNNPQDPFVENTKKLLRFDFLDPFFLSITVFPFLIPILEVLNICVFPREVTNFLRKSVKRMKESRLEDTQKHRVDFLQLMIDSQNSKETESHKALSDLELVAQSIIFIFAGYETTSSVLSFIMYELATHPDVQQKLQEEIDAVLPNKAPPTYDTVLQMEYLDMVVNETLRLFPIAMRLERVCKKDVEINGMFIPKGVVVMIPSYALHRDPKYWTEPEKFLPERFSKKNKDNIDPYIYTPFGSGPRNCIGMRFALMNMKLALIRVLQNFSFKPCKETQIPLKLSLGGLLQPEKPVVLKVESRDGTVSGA
Description: (§1) B. […] Solutions of each test compound were separately prepared at concentrations of 20000, 6000, 2000, 600, 200, and 60 μM by serial dilution with DMSO:acetonitrile (MeCN) (50:50 v/v). The individual test compound solutions were then diluted 20-fold with DMSO:MeCN:deionized water (5:5:180 v/v/v) to concentrations of 1000, 300, 100, 30, 10, and 3 μM. […] The mixed inhibitor solutions were then diluted 20-fold with DMSO:MeCN:deionized water (5:5:180 v/v/v) to concentrations of 300, 100, 30, 10, 3, 1, 0.3, and 0.1 μM. The percent of organic solvent attributable to the test compound or inhibitor mixture in the final reaction mixture was 2% v/v. Pooled human liver microsome suspension (20 mg/mL) was diluted with phosphate buffer to obtain a 5 mg/mL suspension. A solution of NADPH was prepared in phosphate buffer at a concentration of 5 mM. Separate stock solutions of each substrate were prepared in DMSO:MeCN (50:50 v/v), mixed, and diluted in phosphate buffer to obtain a single solution containing each substrate at five times its experimentally determined Km concentration. […] A portion of the supernatant was analyzed by gradient reverse-phase HPLC with detection by electrospray ionization triple quadrupole mass spectrometry in the positive ion mode. Data was fitted to sigmoid dose-response curves and the inhibitory potency of each test compound was determined as its IC50 value.

CYP2C9 = molecular target: T2, CYP2C9 (Homo sapiens, UniProt P11712); assay: Inhibition of liver cytochrome P450 enzymes, isozyme 2C9; type: in vitro ADME; details: pooled human liver microsomes
T2 construct: from tissue; host or cells: pooled human liver microsomes
T2 sequence (P11712 whole entry): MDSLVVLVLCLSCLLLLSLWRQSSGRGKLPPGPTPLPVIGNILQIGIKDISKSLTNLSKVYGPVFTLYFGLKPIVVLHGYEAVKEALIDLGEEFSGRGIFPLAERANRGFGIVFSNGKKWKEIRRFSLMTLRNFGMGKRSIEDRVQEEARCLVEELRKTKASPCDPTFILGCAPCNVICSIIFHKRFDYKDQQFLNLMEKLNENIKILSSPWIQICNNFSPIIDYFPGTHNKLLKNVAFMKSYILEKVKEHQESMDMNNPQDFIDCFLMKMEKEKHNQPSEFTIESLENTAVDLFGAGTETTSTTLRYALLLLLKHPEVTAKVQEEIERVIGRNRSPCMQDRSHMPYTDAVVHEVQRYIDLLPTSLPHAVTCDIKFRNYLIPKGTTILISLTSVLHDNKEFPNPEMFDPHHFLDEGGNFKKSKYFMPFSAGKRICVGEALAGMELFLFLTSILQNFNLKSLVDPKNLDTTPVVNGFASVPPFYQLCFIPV
Description: as §1

CYP2C19 = molecular target: T3, CYP2C19 (Homo sapiens, UniProt P33261); assay: Inhibition of liver cytochrome P450 enzymes, isozyme 2C19; type: in vitro ADME; details: pooled human liver microsomes
T3 construct: from tissue; host or cells: pooled human liver microsomes
T3 sequence (P33261 whole entry): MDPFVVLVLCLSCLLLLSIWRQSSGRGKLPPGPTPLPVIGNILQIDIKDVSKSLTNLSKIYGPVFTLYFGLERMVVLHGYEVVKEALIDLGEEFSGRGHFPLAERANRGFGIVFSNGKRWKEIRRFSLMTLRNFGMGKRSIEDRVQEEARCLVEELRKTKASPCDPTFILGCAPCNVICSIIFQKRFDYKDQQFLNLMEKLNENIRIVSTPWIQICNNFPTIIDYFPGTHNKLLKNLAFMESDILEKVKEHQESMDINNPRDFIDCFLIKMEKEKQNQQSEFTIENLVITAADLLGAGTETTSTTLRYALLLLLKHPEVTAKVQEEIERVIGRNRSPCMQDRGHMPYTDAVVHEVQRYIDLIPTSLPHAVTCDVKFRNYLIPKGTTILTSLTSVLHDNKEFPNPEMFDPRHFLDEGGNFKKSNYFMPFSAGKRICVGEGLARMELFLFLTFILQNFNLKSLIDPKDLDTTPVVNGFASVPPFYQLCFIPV
Description: as §1

[2] = tested on: Septoria tritici (ATCC 26517); assay: Minimum Inhibitory Concentration (MIC) vs. Septoria tritici; type: cell-based; details: Zymoseptoria tritici, ATCC26517, 168 h; 50% reduction in growth of S. tritici; 22° C., seven days; read-out: Septoria Rating (MIC)
Procedure, shortened: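 Growth inhibition of S. tritici by CLSI-based filamentous-fungus microdilution, 2-fold series 16 to 0.016 μg/mL in RPMI-1640/MOPS with 2% DMSO. Inoculum approximately 5×10^4 cfu/mL; plates incubated 22° C, seven days, dark, unshaken.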

MIC (C. albicans): 2 ng/mL (≈ 4.19 nM) | IC50 (CYP3A4): 8.4 µM | IC50 (CYP2C9): 12 µM | IC50 (CYP2C19): 11 µM | MIC [2]: ≤ 500 ng/mL
Compound: OC(Cn1cnnn1)(c1ccc(F)cc1F)C(F)(F)c1ccc(OCc2cccc(F)c2)cn1 (stereo not drawn) [Compound 3, 2-(2,4-Difluorophenyl)-1,1-difluoro-1-(5-(3-fluorobenzyloxy)pyridin-2-yl)-3-(1H-tetrazol-1-yl)propan-2-ol]
pest or weed control at 50 ppm [1]: 80 to 100%
